Data reported in patent US20150105252A1, “SUBSTITUTED PYRAZOLES AS HERBICIDES” (E I DU PONT DE NEMOURS AND COMPANY, priority 2013, published 2015).

How the values were obtained:
wheat, winter = experiment: Test D preemergence; format: in vivo, Triticum aestivum; settings: for Plant response rating, Wheat, Winter: Preemergence, scale 0 to 100
Excerpt: (§1) Seeds of plant species selected from bluegrass (annual bluegrass, Poa annua), blackgrass (Alopecurus myosuroides), canarygrass (littleseed canarygrass, Phalaris minor), chickweed (common chickweed, Stellaria media), galium (catchweed bedstraw, Galium aparine), bromegrass, downy (downy bromegrass, Bromus tectorum), field poppy (Papaver rhoeas), field violet (Viola arvensis), foxtail, green (green foxtail, Setaria viridis), deadnettle (henbit deadnettle, Lamium amplexicaule), ryegrass, Italian (Italian ryegrass, Lolium multiflorum), kochia (Kochia scoparia), lambsquarters (Chenopodium album), oilseed rape (Brassica napus), pigweed (redroot pigweed, Amaranthus retroflexus), chamomile (scentless chamomile, Matricaria inodora), speedwell (bird's-eye speedwell, Veronica persica), barley, spring (spring barley, Hordeum vulgare), wheat, spring (spring wheat, Triticum aestivum), buckwheat, wild (wild buckwheat, Polygonum convolvulus), mustard, wild (wild mustard, Sinapis arvensis), oat, wild (wild oat, Avena fatua), radish, wild (wild radish, Raphanus raphanistrum), windgrass (Apera spica-venti), Russian thistle (Salsola kali), barley, winter (winter barley, Hordeum vulgare), and wheat, winter (winter wheat, Triticum aestivum) were planted into a silt loam soil and treated preemergence with test chemicals formulated in a non-phytotoxic solvent mixture which included a surfactant.
(§2) At the same time, these species were planted in pots containing Redi-Earth® planting medium (Scotts Company, 14111 Scottslawn Road, Marysville, Ohio 43041) comprising spaghnum peat moss, vermiculite, wetting agent and starter nutrients and treated with postemergence applications of the test chemicals formulated in the same manner. Plants ranged in height from 2 to 18 cm (1- to 4-leaf stage). Treated plants and controls were maintained in a controlled growth environment for 14 to 21 days after which time all species were compared to controls and visually evaluated. Plant response ratings, summarized in Table D, are based on a scale of 0 to 100 where 0 is no effect and 100 is complete control. A dash (-) response means no test result.

wheat, spring = experiment: Test D preemergence; format: in vivo, Triticum aestivum; settings: for Plant response rating, Wheat, Spring: Preemergence, scale 0 to 100
Excerpt: as §1, §2

oilseed rape [1] = experiment: Test D postemergence; format: in vivo, Brassica napus; settings: scale 0 to 100
Excerpt: as §1, §2

ryegrass, Italian = experiment: Test D postemergence; format: in vivo, Lolium multiflorum; settings: scale 0 to 100
Excerpt: as §1, §2

kochia [2] = experiment: Test D preemergence; format: in vivo, Kochia scoparia; settings: for Plant response rating, Kochia: Preemergence, scale 0 to 100
Excerpt: as §1, §2

speedwell = experiment: Test D postemergence; format: in vivo, Veronica persica; settings: scale 0 to 100
Excerpt: as §1, §2

field poppy [3] = experiment: Test D postemergence; format: in vivo, Papaver rhoeas; settings: scale 0 to 100
Excerpt: as §1, §2

oilseed rape [4] = experiment: Test D preemergence; format: in vivo, Brassica napus; settings: for Plant response rating, Oilseed Rape: Preemergence, scale 0 to 100
Excerpt: as §1, §2

blackgrass = experiment: Test D preemergence; format: in vivo, Alopecurus myosuroides; settings: for Plant response rating, Blackgrass: Preemergence, scale 0 to 100
Excerpt: as §1, §2

bromegrass, downy = experiment: Test D preemergence; format: in vivo, Bromus tectorum; settings: for Plant response rating, Bromegrass, Downy: Preemergence, scale 0 to 100
Excerpt: as §1, §2

chickweed [5] = experiment: Test D postemergence; format: in vivo, Stellaria media; settings: scale 0 to 100
Excerpt: as §1, §2

kochia [6] = experiment: Test D postemergence; format: in vivo, Kochia scoparia; settings: scale 0 to 100
Excerpt: as §1, §2

field poppy [7] = experiment: Test D preemergence; format: in vivo, Papaver rhoeas; settings: for Plant response rating, Field Poppy: Preemergence, scale 0 to 100
Excerpt: as §1, §2

lambsquarters = experiment: Test D preemergence; format: in vivo, Chenopodium album; settings: for Plant response rating, Lambsquarters: Preemergence, scale 0 to 100
Excerpt: as §1, §2

windgrass = experiment: Test D preemergence; format: in vivo, Apera spica-venti; settings: for Plant response rating, Windgrass: Preemergence, scale 0 to 100
Excerpt: as §1, §2

barley, winter = experiment: Test D postemergence; format: in vivo, Hordeum vulgare; settings: scale 0 to 100
Excerpt: as §1, §2

barley, spring = experiment: Test D postemergence; format: in vivo, Hordeum vulgare; settings: scale 0 to 100
Excerpt: as §1, §2

canarygrass = experiment: Test D postemergence; format: in vivo, Phalaris minor; settings: scale 0 to 100
Excerpt: as §1, §2

radish, wild = experiment: Test D preemergence; format: in vivo, Raphanus raphanistrum; settings: for Plant response rating, Radish, Wild: Preemergence, scale 0 to 100
Excerpt: as §1, §2

chickweed [8] = experiment: Test D preemergence; format: in vivo, Stellaria media; settings: for Plant response rating, Chickweed: Preemergence, scale 0 to 100
Excerpt: as §1, §2

[9] = 16 g ai/ha, taken as preemergence

Cc1cc(C(=O)NCC(F)(F)F)nn1Cc1ccnc(C(F)(F)F)c1 [Compound 74]
Plant response rating (scale 0 to 100), Wheat, Winter (wheat, winter; [9]): 0 | Plant response rating, Wheat, Winter (wheat, winter; 31 g ai/ha): 0 | Plant response rating, Wheat, Winter (wheat, winter; 62 g ai/ha): 0 | Plant response rating, Wheat, Winter (wheat, winter; 125 g ai/ha): 5 | Plant response rating (scale 0 to 100), Wheat, Spring (wheat, spring; [9]): 0 | Plant response rating, Wheat, Spring (wheat, spring; 31 g ai/ha): 0 | Plant response rating, Wheat, Spring (wheat, spring; 62 g ai/ha): 0 | Plant response rating, Wheat, Spring (wheat, spring; 125 g ai/ha): 0 | Plant response rating, Oilseed Rape (oilseed rape [1]; Postemergence, 16 g ai/ha): 15 | Oilseed Rape plant response rating (oilseed rape [1]; Postemergence, 31 g ai/ha): 20 | Oilseed Rape plant response rating (oilseed rape [1]; Postemergence, 125 g ai/ha): 35 | Oilseed Rape plant response rating (oilseed rape [1]; postemergence, 62 g ai/ha): 25 | Plant response rating, Ryegrass, Italian (ryegrass, Italian; Postemergence, 16 g ai/ha): 0 | Ryegrass, Italian plant response rating (ryegrass, Italian; Postemergence, 31 g ai/ha): 5 | Ryegrass, Italian plant response rating (ryegrass, Italian; Postemergence, 125 g ai/ha): 10 | Ryegrass, Italian plant response rating (ryegrass, Italian; postemergence, 62 g ai/ha): 5 | Plant response rating (scale 0 to 100), Kochia (kochia [2]; [9]): 50 | Plant response rating, Kochia (kochia [2]; 31 g ai/ha): 85 | Plant response rating, Kochia (kochia [2]; 62 g ai/ha): 100 | Plant response rating, Kochia (kochia [2]; 125 g ai/ha): 100 | Plant response rating, Speedwell (speedwell; Postemergence, 16 g ai/ha): 75 | Speedwell plant response rating (speedwell; Postemergence, 31 g ai/ha): 60 | Speedwell plant response rating (speedwell; Postemergence, 125 g ai/ha): 75 | Speedwell plant response rating (speedwell; postemergence, 62 g ai/ha): 70 | Plant response rating, Field Poppy (field poppy [3]; Postemergence, 16 g ai/ha): 10 | Field Poppy plant response rating (field poppy [3]; Postemergence, 31 g ai/ha): 75 | Field Poppy plant response rating (field poppy [3]; Postemergence, 125 g ai/ha): 20 | Field Poppy plant response rating (field poppy [3]; postemergence, 62 g ai/ha): 30 | Plant response rating (scale 0 to 100), Oilseed Rape (oilseed rape [4]; [9]): 5 | Plant response rating, Oilseed Rape (oilseed rape [4]; 31 g ai/ha): 15 | Plant response rating, Oilseed Rape (oilseed rape [4]; 62 g ai/ha): 40 | Plant response rating, Oilseed Rape (oilseed rape [4]; 125 g ai/ha): 45 | Plant response rating (scale 0 to 100), Blackgrass (blackgrass; [9]): 0 | Plant response rating, Blackgrass (blackgrass; 31 g ai/ha): 0 | Plant response rating, Blackgrass (blackgrass; 62 g ai/ha): 10 | Plant response rating, Blackgrass (blackgrass; 125 g ai/ha): 15 | Plant response rating (scale 0 to 100), Bromegrass, Downy (bromegrass, downy; [9]): 0 | Plant response rating, Bromegrass, Downy (bromegrass, downy; 31 g ai/ha): 0 | Plant response rating, Bromegrass, Downy (bromegrass, downy; 62 g ai/ha): 5 | Plant response rating, Bromegrass, Downy (bromegrass, downy; 125 g ai/ha): 0 | Plant response rating, Chickweed (chickweed [5]; Postemergence, 16 g ai/ha): 15 | Chickweed plant response rating (chickweed [5]; Postemergence, 31 g ai/ha): 35 | Chickweed plant response rating (chickweed [5]; Postemergence, 125 g ai/ha): 65 | Chickweed plant response rating (chickweed [5]; postemergence, 62 g ai/ha): 25 | Plant response rating, Kochia (kochia [6]; Postemergence, 16 g ai/ha): 15 | Kochia plant response rating (kochia [6]; Postemergence, 31 g ai/ha): 25 | Kochia plant response rating (kochia [6]; Postemergence, 125 g ai/ha): 65 | Kochia plant response rating (kochia [6]; postemergence, 62 g ai/ha): 35 | Plant response rating (scale 0 to 100), Field Poppy (field poppy [7]; [9]): 50 | Plant response rating, Field Poppy (field poppy [7]; 31 g ai/ha): 80 | Plant response rating, Field Poppy (field poppy [7]; 62 g ai/ha): 95 | Plant response rating, Field Poppy (field poppy [7]; 125 g ai/ha): 100 | Plant response rating (scale 0 to 100), Lambsquarters (lambsquarters; [9]): 20 | Plant response rating, Lambsquarters (lambsquarters; 31 g ai/ha): 50 | Plant response rating, Lambsquarters (lambsquarters; 62 g ai/ha): 20 | Plant response rating, Lambsquarters (lambsquarters; 125 g ai/ha): 85 | Plant response rating (scale 0 to 100), Windgrass (windgrass; [9]): 0 | Plant response rating, Windgrass (windgrass; 31 g ai/ha): 0 | Plant response rating, Windgrass (windgrass; 62 g ai/ha): 25 | Plant response rating, Windgrass (windgrass; 125 g ai/ha): 35 | Barley, Winter plant response rating (barley, winter; Postemergence, 16 g ai/ha): 0 | Barley, Winter plant response rating (barley, winter; Postemergence, 31 g ai/ha): 0 | Barley, Winter plant response rating (barley, winter; Postemergence, 125 g ai/ha): 5 | Barley, Winter plant response rating (barley, winter; postemergence, 62 g ai/ha): 0 | Barley, Spring plant response rating (barley, spring; Postemergence, 16 g ai/ha): 0 | Barley, Spring plant response rating (barley, spring; Postemergence, 31 g ai/ha): 0 | Barley, Spring plant response rating (barley, spring; Postemergence, 125 g ai/ha): 0 | Barley, Spring plant response rating (barley, spring; postemergence, 62 g ai/ha): 0 | Plant response rating, Canarygrass (canarygrass; Postemergence, 16 g ai/ha): 0 | Canarygrass plant response rating (canarygrass; Postemergence, 31 g ai/ha): 0 | Canarygrass plant response rating (canarygrass; Postemergence, 125 g ai/ha): 0 | Canarygrass plant response rating (canarygrass; postemergence, 62 g ai/ha): 0 | Plant response rating (scale 0 to 100), Radish, Wild (radish, wild; [9]): 0 | Plant response rating, Radish, Wild (radish, wild; 31 g ai/ha): 15 | Plant response rating, Radish, Wild (radish, wild; 62 g ai/ha): 75 | Plant response rating, Radish, Wild (radish, wild; 125 g ai/ha): 100 | Plant response rating (scale 0 to 100), Chickweed (chickweed [8]; [9]): 20 | Plant response rating, Chickweed (chickweed [8]; 31 g ai/ha): 70 | Plant response rating, Chickweed (chickweed [8]; 62 g ai/ha): 100 | Plant response rating, Chickweed (chickweed [8]; 125 g ai/ha): 100
